Experimental data from PubChem BioAssay AID256 (DTP/NCI, 2004).
Toxic doses and inconclusive results are not listed.

System: CD2F1 mice, L1210 leukemia ip, survival T/C
Assay: NCI In Vivo Anticancer Drug Screen. Data for tumor model L1210 Leukemia (intraperitoneal) in CD2F1 (CDF1) mice
Settings: higher = longer survival
Procedure, shortened: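 Read-out first: treated-group measurement over vehicle-control measurement, expressed as a ratio. Animals bore a transplanted tumor line and were dosed with compound or vehicle.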

[1] = endpoint: mean survival time, dose: 100.0 mg/kg/injection, schedule: Q04DX003 (ip), vehicle: saline
[2] = endpoint: mean survival time, dose: 200.0 mg/kg/injection, schedule: Q04DX003 (ip), vehicle: saline
[3] = endpoint: mean survival time, dose: 50.0 mg/kg/injection, schedule: Q01DX009 (ip), vehicle: saline with Tween-80
[4] = endpoint: mean survival time, dose: 100.0 mg/kg/injection, schedule: Q01DX009 (ip), vehicle: saline
[5] = endpoint: mean survival time, dose: 200.0 mg/kg/injection, schedule: Q01DX009 (ip), vehicle: saline
[6] = endpoint: mean survival time, dose: 100.0 mg/kg/injection, schedule: Q01DX001 (ip), vehicle: saline with Tween-80
[7] = endpoint: mean survival time, dose: 200.0 mg/kg/injection, schedule: Q01DX001 (ip), vehicle: saline with Tween-80
[8] = endpoint: mean survival time, dose: 400.0 mg/kg/injection, schedule: Q01DX001 (ip), vehicle: saline with Tween-80
[9] = endpoint: mean survival time, dose: 100.0 mg/kg/injection, schedule: Q04DX002 (ip), vehicle: saline with Tween-80
[10] = endpoint: mean survival time, dose: 200.0 mg/kg/injection, schedule: Q04DX002 (ip), vehicle: saline with Tween-80
[11] = endpoint: mean survival time, dose: 400.0 mg/kg/injection, schedule: Q04DX002 (ip), vehicle: saline with Tween-80
[12] = endpoint: mean survival time, dose: 100.0 mg/kg/injection, schedule: Q01DX001 (ip), vehicle: saline
[13] = endpoint: mean survival time, dose: 200.0 mg/kg/injection, schedule: Q01DX001 (ip), vehicle: saline
[14] = endpoint: mean survival time, dose: 400.0 mg/kg/injection, schedule: Q01DX001 (ip), vehicle: saline
[15] = endpoint: mean survival time, dose: 100.0 mg/kg/injection, schedule: Q04DX003 (ip), vehicle: saline with Tween-80
[16] = endpoint: mean survival time, dose: 200.0 mg/kg/injection, schedule: Q04DX003 (ip), vehicle: saline with Tween-80
[17] = endpoint: mean survival time, dose: 400.0 mg/kg/injection, schedule: Q04DX003 (ip), vehicle: saline with Tween-80
[18] = endpoint: mean survival time, dose: 100.0 mg/kg/injection, schedule: Q04DX003 (ip), vehicle: saline sonified

`[Br][Pt+2][Br].[NH-]c1cccc(I)c1.[NH-]c1cccc(I)c1` was tested, and the T/C (endpoint: mean survival time, dose: 3.12 mg/kg/injection, schedule: Q04DX003 (ip), vehicle: distilled water + Tween-80) was 98 % of control, the T/C (endpoint: mean survival time, dose: 6.25 mg/kg/injection, schedule: Q04DX003 (ip), vehicle: distilled water + Tween-80) was 101 % of control and the T/C (endpoint: mean survival time, dose: 12.5 mg/kg/injection, schedule: Q04DX003 (ip), vehicle: distilled water + Tween-80) was 101 % of control. For the same compound, the T/C (endpoint: mean survival time, dose: 25.0 mg/kg/injection, schedule: Q04DX003 (ip), vehicle: distilled water + Tween-80) was 101 % of control, the T/C (endpoint: mean survival time, dose: 50.0 mg/kg/injection, schedule: Q04DX003 (ip), vehicle: distilled water + Tween-80) was 101 % of control and the T/C (endpoint: mean survival time, dose: 100.0 mg/kg/injection, schedule: Q04DX003 (ip), vehicle: distilled water + Tween-80) was 98 % of control. For the same compound, the T/C (endpoint: mean survival time, dose: 200.0 mg/kg/injection, schedule: Q04DX003 (ip), vehicle: distilled water + Tween-80) was 114 % of control.
In the case of `CC(=O)C(CN(C)C)c1ccccc1` (configuration not stated), the T/C [1] is reported as 95 % of control and the T/C [2] is reported as 107 % of control.
For `C/C=C\C1OC1(C)c1cc(=O)c2c(C)cc3c(c2o1)C(=O)c1c(O)c(C2CC(C)(N(C)C)C(OC(C)=O)C(C)O2)cc(C2CC(N(C)C)C(O)C(C)O2)c1C3=O` (configuration not stated), the T/C (endpoint: mean survival time, dose: 0.35 mg/kg/injection, schedule: Q04DX003 (ip), vehicle: saline with Tween-80) was 102 % of control, the T/C (endpoint: median survival time, dose: 0.22 mg/kg/injection, schedule: Q01DX005 (ip), vehicle: saline + alcohol) was 124 % of control and the T/C (endpoint: median survival time, dose: 0.25 mg/kg/injection, schedule: Q01DX005 (ip), vehicle: saline + alcohol) was 120 % of control. For the same compound, the T/C (endpoint: median survival time, dose: 0.36 mg/kg/injection, schedule: Q01DX005 (ip), vehicle: saline + alcohol) was 120 % of control, the T/C (endpoint: median survival time, dose: 1.0 mg/kg/injection, schedule: Q01DX005 (ip), vehicle: saline + alcohol) was 120 % of control and the T/C (endpoint: median survival time, dose: 2.78 mg/kg/injection, schedule: Q01DX005 (ip), vehicle: saline + alcohol) was 172 % of control.
With `C[Si](C)(C)Oc1cc(N=NNC2=CC(=O)c3ccccc3C2=O)c(O)c2ccccc12` the T/C (endpoint: mean survival time, dose: 12.5 mg/kg/injection, schedule: Q01DX009 (ip), vehicle: saline with Tween-80) was 95 % of control, the T/C (endpoint: mean survival time, dose: 25.0 mg/kg/injection, schedule: Q01DX009 (ip), vehicle: saline with Tween-80) was 98 % of control and the T/C [3] was 95 % of control.
With `O=C1CC(=Nc2ccccc2)CC(=O)N1` the T/C (endpoint: mean survival time, dose: 12.5 mg/kg/injection, schedule: Q01DX009 (ip), vehicle: other) was 102 % of control, the T/C (endpoint: mean survival time, dose: 25.0 mg/kg/injection, schedule: Q01DX009 (ip), vehicle: other) was 105 % of control and the T/C (endpoint: mean survival time, dose: 50.0 mg/kg/injection, schedule: Q01DX009 (ip), vehicle: other) was 91 % of control. The T/C (endpoint: mean survival time, dose: 100.0 mg/kg/injection, schedule: Q01DX009 (ip), vehicle: other) was 89 % of control and the T/C (endpoint: mean survival time, dose: 200.0 mg/kg/injection, schedule: Q01DX009 (ip), vehicle: other) was 89 % of control.
`CC1(C)OCC(COCc2ccccc2)O1` (configuration not stated) was tested, and the T/C [4] was 96 % of control, the T/C [5] was 91 % of control and the T/C (endpoint: mean survival time, dose: 400.0 mg/kg/injection, schedule: Q01DX009 (ip), vehicle: saline) was 96 % of control.
`N#Cc1cn(C2CCCCC2)c2ncccc12` was tested, and the T/C [1] was 113 % of control and the T/C [2] was 97 % of control.
For `CCOC(=O)Nc1cc2ncc(C(=O)N(C)c3ccccc3)nc2c(N)n1`, the T/C [6] was 98 % of control, the T/C [7] was 88 % of control and the T/C [8] was 98 % of control.
`CCC(=O)Nc1nn[nH]n1` was tested, and the T/C [9] was 105 % of control, the T/C [10] was 102 % of control and the T/C [11] was 94 % of control.
In the case of `CC(=O)OCc1ncccc1OC(C)=O`, the T/C (endpoint: mean survival time, dose: 25.0 mg/kg/injection, schedule: Q01DX009 (ip), vehicle: suspension in saline) is reported as 102 % of control, the T/C (endpoint: mean survival time, dose: 50.0 mg/kg/injection, schedule: Q01DX009 (ip), vehicle: suspension in saline) is reported as 98 % of control and the T/C (endpoint: mean survival time, dose: 100.0 mg/kg/injection, schedule: Q01DX009 (ip), vehicle: suspension in saline) is reported as 102 % of control. For the same compound, the T/C (endpoint: mean survival time, dose: 200.0 mg/kg/injection, schedule: Q01DX009 (ip), vehicle: suspension in saline) was 93 % of control.
With `CCOC(=O)/C=C(/C)N` the T/C [12] was 101 % of control, the T/C [13] was 101 % of control and the T/C [14] was 107 % of control.
For `CC1=NNC(=O)C1NNc1ccccc1` (configuration not stated), the T/C [15] was 96 % of control, the T/C [16] was 96 % of control and the T/C [17] was 96 % of control.
With `Cc1c2ccccc2c(CSCC(N)C(=O)O)c2ccccc12` (configuration not stated) the T/C [15] was 89 % of control, the T/C [16] was 107 % of control and the T/C [17] was 98 % of control.
For `C=C1C(=O)OC2CCCCCCC12` (configuration not stated), the T/C (endpoint: mean survival time, dose: 50.0 mg/kg/injection, schedule: Q01DX009 (ip), vehicle: saline) was 102 % of control, the T/C [4] was 97 % of control and the T/C [5] was 100 % of control.
`C[CH2][Sn]1([CH2]C)[O]C2C(CO)OC(n3ccc(N)nc3=O)C2[O]1` (configuration not stated) was tested, and the T/C (endpoint: mean survival time, dose: 1.56 mg/kg/injection, schedule: Q01DX005 (ip), vehicle: water) was 97 % of control, the T/C (endpoint: mean survival time, dose: 3.13 mg/kg/injection, schedule: Q01DX005 (ip), vehicle: water) was 111 % of control and the T/C (endpoint: mean survival time, dose: 6.25 mg/kg/injection, schedule: Q01DX005 (ip), vehicle: water) was 100 % of control. For the same compound, the T/C (endpoint: mean survival time, dose: 12.5 mg/kg/injection, schedule: Q01DX005 (ip), vehicle: other) was 103 % of control and the T/C (endpoint: mean survival time, dose: 12.5 mg/kg/injection, schedule: Q01DX005 (ip), vehicle: water) was 105 % of control.
For `COc1ccc(COC(=O)Nc2cccc3ccccc23)cc1`, the T/C (endpoint: mean survival time, dose: 75.0 mg/kg/injection, schedule: Q04DX002 (ip), vehicle: saline with Tween-80) was 104 % of control, the T/C (endpoint: mean survival time, dose: 150.0 mg/kg/injection, schedule: Q04DX002 (ip), vehicle: saline with Tween-80) was 104 % of control and the T/C (endpoint: mean survival time, dose: 300.0 mg/kg/injection, schedule: Q04DX002 (ip), vehicle: saline with Tween-80) was 100 % of control.
`Cc1cn(C2CCC3(C)C(=CCC4C3CCC3(C)C(C(C)CCCC(C)C)CCC43)C2)c(=O)[nH]c1=O` (configuration not stated) was tested, and the T/C (endpoint: mean survival time, dose: 37.5 mg/kg/injection, schedule: Q01DX001 (ip), vehicle: Klucel (hydroxypropylcellulose) (HPC)) was 88 % of control, the T/C (endpoint: mean survival time, dose: 75.0 mg/kg/injection, schedule: Q01DX001 (ip), vehicle: Klucel (hydroxypropylcellulose) (HPC)) was 91 % of control and the T/C (endpoint: mean survival time, dose: 150.0 mg/kg/injection, schedule: Q01DX001 (ip), vehicle: Klucel (hydroxypropylcellulose) (HPC)) was 91 % of control. The T/C (endpoint: mean survival time, dose: 300.0 mg/kg/injection, schedule: Q01DX001 (ip), vehicle: Klucel (hydroxypropylcellulose) (HPC)) was 91 % of control.
In the case of `CC(=O)Nc1ccc(/C=N/NC(=O)CNC(=O)NCc2ccco2)cc1`, the T/C [3] is reported as 96 % of control, the T/C (endpoint: mean survival time, dose: 100.0 mg/kg/injection, schedule: Q01DX009 (ip), vehicle: saline with Tween-80) is reported as 92 % of control and the T/C (endpoint: mean survival time, dose: 200.0 mg/kg/injection, schedule: Q01DX009 (ip), vehicle: saline with Tween-80) is reported as 94 % of control.
`Cc1ccc(CC(F)F)cc1` was tested, and the T/C [6] was 101 % of control, the T/C [18] was 98 % of control and the T/C [7] was 101 % of control. For the same compound, the T/C (endpoint: mean survival time, dose: 200.0 mg/kg/injection, schedule: Q04DX003 (ip), vehicle: saline sonified) was 96 % of control, the T/C [8] was 103 % of control and the T/C (endpoint: mean survival time, dose: 400.0 mg/kg/injection, schedule: Q04DX003 (ip), vehicle: saline sonified) was 96 % of control.
For `NNc1ccccc1F`, the T/C (endpoint: mean survival time, dose: 25.0 mg/kg/injection, schedule: Q04DX002 (ip), vehicle: saline with Tween-80) was 97 % of control, the T/C (endpoint: mean survival time, dose: 50.0 mg/kg/injection, schedule: Q04DX002 (ip), vehicle: saline with Tween-80) was 90 % of control and the T/C [9] was 93 % of control. For the same compound, the T/C [18] was 87 % of control.
In the case of `O=C1c2ccccc2S(=O)(=O)N1CC(O)COc1ccc(Cl)cc1` (configuration not stated), the T/C [15] is reported as 101 % of control, the T/C [16] is reported as 101 % of control and the T/C [17] is reported as 93 % of control.
For `COC(=O)C(Cc1[nH]c(N=Nc2ccc(Br)cc2)nc1N=Nc1ccc(Br)cc1)NC(C)=O` (configuration not stated), the T/C [9] was 93 % of control, the T/C [10] was 96 % of control and the T/C [11] was 96 % of control.
In the case of `O=Cc1cc([N+](=O)[O-])cc(CCl)c1O`, the T/C (endpoint: mean survival time, dose: 25.0 mg/kg/injection, schedule: Q01DX009 (ip), vehicle: Klucel (hydroxypropylcellulose) (HPC)) is reported as 95 % of control, the T/C (endpoint: mean survival time, dose: 50.0 mg/kg/injection, schedule: Q01DX009 (ip), vehicle: Klucel (hydroxypropylcellulose) (HPC)) is reported as 95 % of control and the T/C (endpoint: mean survival time, dose: 100.0 mg/kg/injection, schedule: Q01DX009 (ip), vehicle: Klucel (hydroxypropylcellulose) (HPC)) is reported as 101 % of control.
`CCOCC(C)(CO)CC(C)CO` (configuration not stated) was tested, and the T/C [12] was 101 % of control, the T/C [13] was 104 % of control and the T/C [14] was 103 % of control.
